US9302999B2, “Substituted triazoles as herbicides” (E. I. DU PONT DE NEMOURS AND COMPANY, priority 2012, dated 2016)

Tests used:
Assay type in all cases: in vivo
[1] = system: crabgrass, large (large crabgrass, Digitaria sanguinalis); assay: Test A pre-/postemergence: crabgrass, large
Procedure, shortened: (§1)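 Injury was scored visually on a 0 (no effect) to 100 (complete control) scale versus untreated controls roughly ten days after treatment in the greenhouse. Compounds, formulated in surfactant-containing non-phytotoxic solvent, went on as soil-directed preemergence spray or postemergence to one- to two-leaf plants 2–10 cm tall.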

[2] = system: velvetleaf (Abutilon theophrasti); assay: Test A pre-/postemergence: velvetleaf
Procedure, shortened: as §1

[3] = system: morningglory (Ipomoea spp.); assay: Test A pre-/postemergence: morningglory
Procedure, shortened: as §1

corn (Zea mays) = assay: Test A pre-/postemergence: corn
Procedure, shortened: as §1

[4] = system: ducksalad (Heteranthera limosa); assay: Test B flooded paddy: ducksalad; conditions: Flood, applied to paddy water at 2-leaf stage, visually evaluated after 13 to 15 days
Procedure, shortened: (§2)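 2-leaf plants; pots flooded 3 cm over soil; compound added to paddy water, depth kept constant. Greenhouse 13–15 d. Visual rating vs controls, 0–100 scale (100 = complete control); dash = no result.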

[5] = system: pigweed (Amaranthus retroflexus); assay: Test A pre-/postemergence: pigweed
Procedure, shortened: as §1

[6] = system: foxtail, giant (giant foxtail, Setaria faberii); assay: Test A pre-/postemergence: foxtail, giant
Procedure, shortened: as §1

[7] = system: wheat (Triticum aestivum); assay: Test A pre-/postemergence: wheat
Procedure, shortened: as §1

[8] = system: barnyardgrass (Echinochloa crus-galli); assay: Test B flooded paddy: barnyardgrass; conditions: Flood, applied to paddy water at 2-leaf stage, visually evaluated after 13 to 15 days
Procedure, shortened: as §2

[9] = system: barnyardgrass (Echinochloa crus-galli); assay: Test A pre-/postemergence: barnyardgrass
Procedure, shortened: as §1

rice (Oryza sativa) = assay: Test B flooded paddy: rice; conditions: Flood, applied to paddy water at 2-leaf stage, visually evaluated after 13 to 15 days
Procedure, shortened: as §2

[10] = system: sedge, umbrella (small-flower umbrella sedge Cyperus difformis); assay: Test B flooded paddy: sedge, umbrella; conditions: Flood, applied to paddy water at 2-leaf stage, visually evaluated after 13 to 15 days
Procedure, shortened: as §2

[11] = Postemergence, 125 g ai/ha, 0 to 100 scale, 0 is no effect, 100 is complete control
[12] = Postemergence, 500 g ai/ha, 0 to 100 scale, 0 is no effect, 100 is complete control
[13] = Preemergence, 125 g ai/ha, 0 to 100 scale where 0 is no effect and 100 is complete control
[14] = Preemergence, 500 g ai/ha, 0 to 100 scale (0 no effect, 100 complete control)

Structure (SMILES)	Plant response rating, Crabgrass, Large [1, 11]	Crabgrass, Large plant response rating [1, 12]	Plant response rating, Crabgrass, Large [1, 13]	Plant response rating, Crabgrass, Large [1, 14]	Plant response rating, Velvetleaf [2, 11]	Velvetleaf plant response rating [2, 12]	Plant response rating, Velvetleaf [2, 13]	Plant response rating, Velvetleaf [2, 14]	Plant response rating, Morningglory [3, 11]	Morningglory plant response rating [3, 12]	Plant response rating, Morningglory [3, 13]	Plant response rating, Morningglory [3, 14]	Plant response rating, Corn (corn (Zea mays); [11])	Corn plant response rating (corn (Zea mays); [12])	Plant response rating, Corn (corn (Zea mays); [13])	Plant response rating, Corn (corn (Zea mays); [14])	Plant response rating, Pigweed [5, 11]	Pigweed plant response rating [5, 12]	Plant response rating, Pigweed [5, 13]	Plant response rating, Pigweed [5, 14]	further results
CC(C)Cc1nn(-c2ccc(C(F)(F)F)cc2)nc1Oc1ccnc(C(F)(F)F)c1 [Compound 186]	0	0	0	0	0	20	0	0	0	10	0	0	10	20	0	0	20	60	0	0	Plant response rating, Ducksalad (0 to 100 scale, 0 is no effect, 100 is complete control) ([4]; 125 g ai/ha): 0; Plant response rating, Foxtail, Giant [6, 11]: 0; Foxtail, Giant plant response rating [6, 12]: 0; Plant response rating, Foxtail, Giant [6, 13]: 0; Plant response rating, Foxtail, Giant [6, 14]: 0; Plant response rating, Wheat [7, 11]: 0; Wheat plant response rating [7, 12]: 0; Plant response rating, Wheat [7, 13]: 0; Plant response rating, Wheat [7, 14]: 0; Plant response rating, Barnyardgrass (0 to 100 scale, 0 is no effect, 100 is complete control) ([8]; 125 g ai/ha): 0; Plant response rating, Barnyardgrass [9, 11]: 0; Barnyardgrass plant response rating [9, 12]: 0; Plant response rating, Barnyardgrass [9, 13]: 0; Plant response rating, Barnyardgrass [9, 14]: 0; Plant response rating, Rice (0 to 100 scale, 0 is no effect, 100 is complete control) (rice (Oryza sativa); 125 g ai/ha): 0; Plant response rating, Sedge, Umbrella (0 to 100 scale, 0 is no effect, 100 is complete control) ([10]; 125 g ai/ha): 0
CC(C)Cc1nn(-c2ccc(C(F)(F)F)cc2)nc1Oc1ccnc(C(F)F)c1 [Compound 187]	0	0	0	0	0	0	0	0	0	0	0	0	0	0	0	0	0	0	0	0	Plant response rating, Ducksalad (0 to 100 scale, 0 is no effect, 100 is complete control) ([4]; 125 g ai/ha): 0; Plant response rating, Foxtail, Giant [6, 11]: 0; Foxtail, Giant plant response rating [6, 12]: 0; Plant response rating, Foxtail, Giant [6, 13]: 0; Plant response rating, Foxtail, Giant [6, 14]: 0; Plant response rating, Wheat [7, 11]: 0; Wheat plant response rating [7, 12]: 0; Plant response rating, Wheat [7, 13]: 0; Plant response rating, Wheat [7, 14]: 0; Plant response rating, Barnyardgrass (0 to 100 scale, 0 is no effect, 100 is complete control) ([8]; 125 g ai/ha): 0; Plant response rating, Barnyardgrass [9, 11]: 0; Barnyardgrass plant response rating [9, 12]: 0; Plant response rating, Barnyardgrass [9, 13]: 0; Plant response rating, Barnyardgrass [9, 14]: 0; Plant response rating, Rice (0 to 100 scale, 0 is no effect, 100 is complete control) (rice (Oryza sativa); 125 g ai/ha): 0; Plant response rating, Sedge, Umbrella (0 to 100 scale, 0 is no effect, 100 is complete control) ([10]; 125 g ai/ha): 0
Cc1nn(-c2ccc(C(F)(F)F)cn2)nc1C(=NO)c1cccc(C(F)(F)F)c1 [Compound 201]	20	30	0	20	20	40	0	0	10	50	0	0	10	20	0	0	60	100	0	10	Plant response rating, Ducksalad (0 to 100 scale, 0 is no effect, 100 is complete control) ([4]; 250 g ai/ha): 0; Plant response rating, Foxtail, Giant [6, 11]: 0; Foxtail, Giant plant response rating [6, 12]: 10; Plant response rating, Foxtail, Giant [6, 13]: 0; Plant response rating, Foxtail, Giant [6, 14]: 20; Plant response rating, Wheat [7, 11]: 0; Wheat plant response rating [7, 12]: 10; Plant response rating, Wheat [7, 13]: 0; Plant response rating, Wheat [7, 14]: 0; Plant response rating, Barnyardgrass (0 to 100 scale, 0 is no effect, 100 is complete control) ([8]; 250 g ai/ha): 0; Plant response rating, Barnyardgrass [9, 11]: 0; Barnyardgrass plant response rating [9, 12]: 10; Plant response rating, Barnyardgrass [9, 13]: 0; Plant response rating, Barnyardgrass [9, 14]: 0; Plant response rating, Rice (0 to 100 scale, 0 is no effect, 100 is complete control) (rice (Oryza sativa); 250 g ai/ha): 0; Plant response rating, Sedge, Umbrella (0 to 100 scale, 0 is no effect, 100 is complete control) ([10]; 250 g ai/ha): 0
